Among the data in US9758538B2, “Pyrimidine derivatives” (PFIZER INC., priority 2015, dated 2017) are Ki values, retold here.

Sequence of truncated PI3Kα (p110α/iSH2 p85α), PI3KA_Act (P42336 whole entry, the tested form may be a part): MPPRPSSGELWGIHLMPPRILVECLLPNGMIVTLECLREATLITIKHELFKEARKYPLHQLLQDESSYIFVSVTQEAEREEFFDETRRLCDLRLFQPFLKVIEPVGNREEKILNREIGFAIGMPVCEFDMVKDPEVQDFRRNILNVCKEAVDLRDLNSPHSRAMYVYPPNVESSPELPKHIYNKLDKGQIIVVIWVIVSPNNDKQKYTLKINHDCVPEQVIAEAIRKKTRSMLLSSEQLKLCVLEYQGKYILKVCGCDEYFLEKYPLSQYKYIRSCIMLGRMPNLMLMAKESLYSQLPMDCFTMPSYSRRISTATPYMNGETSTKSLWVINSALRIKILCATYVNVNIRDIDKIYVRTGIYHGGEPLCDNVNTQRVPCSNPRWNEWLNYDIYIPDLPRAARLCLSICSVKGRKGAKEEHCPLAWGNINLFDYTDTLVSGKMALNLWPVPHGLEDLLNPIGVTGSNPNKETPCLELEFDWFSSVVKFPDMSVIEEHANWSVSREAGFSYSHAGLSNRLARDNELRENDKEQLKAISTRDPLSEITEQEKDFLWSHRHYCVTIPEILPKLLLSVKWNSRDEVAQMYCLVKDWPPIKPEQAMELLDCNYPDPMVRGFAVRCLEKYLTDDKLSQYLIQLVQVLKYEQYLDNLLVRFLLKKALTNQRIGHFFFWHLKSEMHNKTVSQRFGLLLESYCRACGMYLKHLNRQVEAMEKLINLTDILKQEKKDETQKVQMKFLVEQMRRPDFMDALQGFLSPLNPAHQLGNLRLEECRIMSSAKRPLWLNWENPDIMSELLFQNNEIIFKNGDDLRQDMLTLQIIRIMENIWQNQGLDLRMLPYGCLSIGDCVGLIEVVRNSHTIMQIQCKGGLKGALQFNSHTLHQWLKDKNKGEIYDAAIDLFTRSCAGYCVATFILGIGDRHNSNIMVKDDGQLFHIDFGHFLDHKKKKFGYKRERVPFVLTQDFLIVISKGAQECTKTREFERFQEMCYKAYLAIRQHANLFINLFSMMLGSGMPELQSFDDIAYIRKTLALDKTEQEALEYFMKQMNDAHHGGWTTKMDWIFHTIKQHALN

One assay addresses truncated PI3Kα (p110α/iSH2 p85α), PI3KA_Act (Homo sapiens (Human), UniProt P42336). Briefly: PI3Kα biochemical kinase assay, fluorescence polarization format (PI3KA_Act). The note with it: 0.5 nM p110α/iSH2 p85, 1 mM ATP, 30 μM PIP2, 15-min preincubation; Morrison equation fit; read-out: PI3KA_Act Ki. The procedure, abridged: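 Enzyme: His-tagged p110α/p85α niSH2 complex from Sf21 baculovirus expression, IMAC-purified, tag cleaved, then SEC. Reactions ran 30 min at room temperature, stopped with 10 mM EDTA pH 8 (final), and were read by fluorescence polarization.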
Turning to `COC(=O)N1CC[C@](CO)(Nc2cc(-c3cnc(N)nc3C)nc(N3CCOCC3)n2)C1` [Example 59, methyl (3S)-3-{[2′-amino-4′-methyl-2-(morpholin-4-yl)-4,5′-bipyrimidin-6-yl]amino}-3-(hydroxymethyl)pyrrolidine-1-carboxylate], the Ki is 0.18 nM. On the same count and under the same terms, the result for `CC(C)S(=O)(=O)N1CC[C@](CO)(Nc2cc(-c3cnc(N)nc3)nc(N3CCOCC3)n2)C1` [Example 52, [(3S)-3-{[2′-amino-2-(morpholin-4-yl)-4,5′-bipyrimidin-6-yl]amino}-1-(propan-2-ylsulfonyl)pyrrolidin-3-yl]methanol] reads 0.084 nM; that for `CC(C)(C)OC(=O)N1CC[C@](CO)(Nc2nc(N3CCOCC3)nc(-c3cnc(N)nc3)c2F)C1` [Example 38, tert-butyl (3S)-3-{[2′-amino-5-fluoro-2-(morpholin-4-yl)-4,5′-bipyrimidin-6-yl]amino}-3-(hydroxymethyl)pyrrolidine-1-carboxylate], less than 0.018 nM. Same read-out and setting: under `COC(=O)N1CC[C@](CO)(Nc2cc(-c3cnc(N)nc3)nc(N3CCOCC3)n2)C1` [Example 34, methyl (3S)-3-{[2′-amino-2-(morpholin-4-yl)-4,5′-bipyrimidin-6-yl]amino}-3-(hydroxymethyl)pyrrolidine-1-carboxylate] stands 0.019 nM; under `CC(=O)N1CCC[C@](CO)(Nc2nc(N3CCOCC3)nc(-c3cnc(N)nc3)c2F)C1` [Example 153, 1-[(3S)-3-{[2′-amino-5-fluoro-2-(morpholin-4-yl)-4,5′-bipyrimidin-6-yl]amino}-3-(hydroxymethyl)piperidin-1-yl]ethanone], 0.849 nM.

Take `Nc1ncc(-c2cc(N[C@@]3(CO)CCCN(C(=O)OCC(F)F)C3)nc(N3CCOCC3)n2)cn1` [Example 141, 2,2-difluoroethyl (3S)-3-{[2′-amino-2-(morpholin-4-yl)-4,5′-bipyrimidin-6-yl]amino}-3-(hydroxymethyl)piperidine-1-carboxylate]: the Ki amounted to 0.043 nM. As for `CCOC(=O)N1CC[C@](COC(C)=O)(Nc2cc(-c3cnc(N)nc3)nc(N3CCOCC3)n2)C1` [Example 113, ethyl (3S)-3-[(acetyloxy)methyl]-3-{[2′-amino-2-(morpholin-4-yl)-4,5′-bipyrimidin-6-yl]amino}pyrrolidine-1-carboxylate], the Ki is 3.23 nM. Same read-out and setting: the result for `Nc1ncc(-c2cc(N[C@@]3(CO)CCN(C(=O)[C@@H]4CC4(F)F)C3)nc(N3CCOCC3)n2)cn1` [Example 46, [(3S)-3-{[2′-amino-2-(morpholin-4-yl)-4,5′-bipyrimidin-6-yl]amino}-3-(hydroxymethyl)pyrrolidin-1-yl][(1S)-2,2-difluorocyclopropyl]methanone] reads less than 0.018 nM; that for `CN(c1cc(-c2cnc(N)nc2)nc(N2CCOCC2)n1)C1(CO)CCN(C(=O)OC(C)(C)C)C1` (single isomer, unassigned) [Example 27, tert-butyl 3-{[2′-amino-2-(morpholin-4-yl)-4,5′-bipyrimidin-6-yl](methyl)amino}-3-(hydroxymethyl)pyrrolidine-1-carboxylate], 0.717 nM; that for `CC(C)CC(=O)N1CC[C@](CO)(Nc2cc(-c3cnc(N)nc3)nc(N3CCOCC3)n2)C1` [Example 57, 1-[(3S)-3-{[2′-amino-2-(morpholin-4-yl)-4,5′-bipyrimidin-6-yl]amino}-3-(hydroxymethyl)pyrrolidin-1-yl]-3-methylbutan-1-one], 0.116 nM. Same read-out and setting: the result for `Nc1ncc(-c2cc(N[C@@]3(CO)CCN(C(=O)N4CCC4)C3)nc(N3CCOCC3)n2)cn1` [Example 89, [(3S)-3-{[2′-amino-2-(morpholin-4-yl)-4,5′-bipyrimidin-6-yl]amino}-3-(hydroxymethyl)pyrrolidin-1-yl](azetidin-1-yl)methanone] reads less than 0.018 nM; that for `COC(=O)N1CCC[C@](CO)(Nc2nc(N3CCOCC3)nc(-c3cnc(N)nc3)c2F)C1` [Example 154, methyl (3S)-3-{[2′-amino-5-fluoro-2-(morpholin-4-yl)-4,5′-bipyrimidin-6-yl]amino}-3-(hydroxymethyl)piperidine-1-carboxylate], less than 0.018 nM. On to `Nc1ncc(-c2cc(N[C@@]3(CO)CCN(C(=O)OC4CC4)C3)nc(N3CCOCC3)n2)cn1` [Example 93, cyclopropyl (3S)-3-{[2′-amino-2-(morpholin-4-yl)-4,5′-bipyrimidin-6-yl]amino}-3-(hydroxymethyl)pyrrolidine-1-carboxylate], for which the Ki was less than 0.018 nM.

Regarding `COC(=O)N1CCC[C@@](CO)(Nc2nc(N3CCOCC3)nc(-c3cnc(N)nc3)c2F)C1` [Example 155, methyl (3R)-3-{[2′-amino-5-fluoro-2-(morpholin-4-yl)-4,5′-bipyrimidin-6-yl]amino}-3-(hydroxymethyl)piperidine-1-carboxylate], the Ki is 3.07 nM.

Regarding `COC(=O)N1CCC[C@@](CO)(Nc2cc(-c3cnc(N)nc3)nc(N3CCOCC3)n2)C1` [Example 6, methyl (3R)-3-{[2′-amino-2-(morpholin-4-yl)-4,5′-bipyrimidin-6-yl]amino}-3-(hydroxymethyl)piperidine-1-carboxylate], the Ki worked out at 0.881 nM. On the same count and under the same terms, under `CC(C)OC(=O)N1CC[C@](CO)(Nc2nc(-c3cnc(N)nc3)nc(N3CCOCC3)n2)C1` [Example 83, propan-2-yl (3S)-3-{[4-(2-aminopyrimidin-5-yl)-6-(morpholin-4-yl)-1,3,5-triazin-2-yl]amino}-3-(hydroxymethyl)pyrrolidine-1-carboxylate] stands 0.215 nM; under `Nc1ncc(-c2cc(N[C@@]3(CO)CCN(C(=O)C4(F)CC4)C3)nc(N3CCOCC3)n2)cn1` [Example 56, [(3S)-3-{[2′-amino-2-(morpholin-4-yl)-4,5′-bipyrimidin-6-yl]amino}-3-(hydroxymethyl)pyrrolidin-1-yl](1-fluorocyclopropyl)methanone], less than 0.018 nM.

For the compound `Nc1ncc(-c2cc(N[C@@]3(CO)CCNC3)nc(N3CCOCC3)n2)cn1` [Example 29, [(3S)-3-{[2′-amino-2-(morpholin-4-yl)-4,5′-bipyrimidin-6-yl]amino}pyrrolidin-3-yl]methanol], the inhibitory constant (Ki) came to 5.88 nM. For the compound `CC(C)(C)OC(=O)N1CC[C@](C)(Nc2cc(-c3cnc(N)nc3)nc(N3CCOCC3)n2)C1` [Example 40, tert-butyl (3S)-3-{[2′-amino-2-(morpholin-4-yl)-4,5′-bipyrimidin-6-yl]amino}-3-methylpyrrolidine-1-carboxylate], the Ki amounted to 0.095 nM. On the same count and under the same terms, under `CCC(=O)N1CCC[C@@](CO)(Nc2nc(N3CCOCC3)nc(-c3cnc(N)nc3)c2F)C1` [Example 147, 1-[(3R)-3-{[2′-amino-5-fluoro-2-(morpholin-4-yl)-4,5′-bipyrimidin-6-yl]amino}-3-(hydroxymethyl)piperidin-1-yl]propan-1-one] stands 1.9 nM. With `CN1CCC(N2CC[C@](CO)(Nc3cc(-c4cnc(N)nc4)nc(N4CCOCC4)n3)C2)C1=O` (stereo partly drawn) [Example 76, (3S)-3-{[2′-amino-2-(morpholin-4-yl)-4,5′-bipyrimidin-6-yl]amino}-3-(hydroxymethyl)-1′-methyl-1,3′-bipyrrolidin-2′-one], the inhibition constant (Ki) came out at 1.82 nM. The same measure, in the same setting: under `C[C@H]1COCCN1c1nc(N[C@@]2(CO)CCN(C(=O)OC3CC3)C2)c(F)c(-c2cnc(N)nc2)n1` [Example 117, cyclopropyl (3S)-3-({2′-amino-5-fluoro-2-[(3S)-3-methylmorpholin-4-yl]-4,5′-bipyrimidin-6-yl}amino)-3-(hydroxymethyl)pyrrolidine-1-carboxylate] stands less than 0.018 nM; under `Nc1ncc(-c2nc(N3CCOCC3)nc(N[C@@]3(COP(=O)(O)O)CCN(C(=O)OCC(F)F)C3)c2F)cn1` [Example 3, 2,2-difluoroethyl (3S)-3-{[2′-amino-5-fluoro-2-(morpholin-4-yl)-4,5′-bipyrimidin-6-yl]amino}-3-[(phosphonooxy)methyl]pyrrolidine-1-carboxylate], 2.61 nM.

Turning to `Nc1ncc(-c2cc(N[C@@]3(CO)CCN(C(=O)NCC(F)(F)F)C3)nc(N3CCOCC3)n2)cn1` [Example 133, (3S)-3-{[2′-amino-2-(morpholin-4-yl)-4,5′-bipyrimidin-6-yl]amino}-3-(hydroxymethyl)-N-(2,2,2-trifluoroethyl)pyrrolidine-1-carboxamide], the Ki worked out at 0.795 nM. On the same count and under the same terms, under `CC(=O)N1CC(CO)(Nc2cc(-c3cnc(N)nc3)nc(N3CCOCC3)n2)C1` [Example 42, 1-[3-{[2′-amino-2-(morpholin-4-yl)-4,5′-bipyrimidin-6-yl]amino}-3-(hydroxymethyl)azetidin-1-yl]ethanone] stands 0.651 nM; under `Nc1ncc(-c2nc(N3CCOCC3)nc(N[C@]3(CO)CCCN(C(=O)OCC(F)F)C3)c2F)cn1` [Example 148, 2,2-difluoroethyl (3R)-3-{[2′-amino-5-fluoro-2-(morpholin-4-yl)-4,5′-bipyrimidin-6-yl]amino}-3-(hydroxymethyl)piperidine-1-carboxylate], 2.96 nM. With `Nc1ncc(-c2nc(N3CCOCC3)nc(N[C@@]3(CO)CCN(C(=O)NCC(F)F)C3)c2F)cn1` [Example 132, (3S)-3-{[2′-amino-5-fluoro-2-(morpholin-4-yl)-4,5′-bipyrimidin-6-yl]amino}-N-(2,2-difluoroethyl)-3-(hydroxymethyl)pyrrolidine-1-carboxamide], the inhibitory constant (Ki) came to 0.097 nM.

The same assay, now with this note: PI3KA_Act Ki (nM), 0.5 nM p110α/iSH2 p85, 1 mM ATP, 30 μM PIP2, 15-min preincubation; Morrison equation fit.
In turn, `Nc1ncc(-c2nc(N3CCOCC3)nc(N[C@@]3(CO)CCN(C(=O)OCC(F)(F)F)C3)c2F)cn1` [Example 140, 2,2,2-trifluoroethyl (3S)-3-{[2′-amino-5-fluoro-2-(morpholin-4-yl)-4,5′-bipyrimidin-6-yl]amino}-3-(hydroxymethyl)pyrrolidine-1-carboxylate] came in with a Ki of less than 0.018 nM.
